Data from patent US10829520B2, “Beta-hairpin peptidomimetics” (POLYPHOR AG, priority 2015, dated 2020).
Where a SMILES comes first, the peptide text is derived from it. Bridges are numbered along the chain shown (N, C = ends). Roman numbers before positions name the chains, in order. [ ]: non-standard residue; d: D form. Tle = CC(C)(C)[C@H](N)C(=O)O; dDab = NCC[C@@H](N)C(=O)O; hSer = N[C@@H](CCO)C(=O)O; Nle = CCCC[C@H](N)C(=O)O; Orn = NCCC[C@H](N)C(=O)O; Dab = NCC[C@H](N)C(=O)O; Dap = NC[C@H](N)C(=O)O; Sar = CNCC(=O)O

How the values were obtained:
Assay type in all cases: cell-based
[1] = system: Acinetobacter baumannii 872842; details: 872842
[2] = system: Acinetobacter baumannii DSM 30008; details: DSM 30008
How it was run: (§1)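 Broth microdilution per CLSI, cation-adjusted MH-II medium, 0.002% (v/v) polysorbate 80 final. Approx. 10^6 CFU/mL inoculum, incubated 35° C for 18-20 h; MIC read as absence of visible growth.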

Escherichia coli 926415 = details: 926415
[3] = system: Escherichia coli ATCC 25922; details: ATCC 25922
How it was run: as §1

[4] = system: Klebsiella pneumoniae 968733; details: 968733
[5] = system: Klebsiella pneumoniae SSI #3010; details: SSI #3010
How it was run: as §1

[6] = system: Pseudomonas aeruginosa ATCC 27853; details: ATCC 27853
How it was run: as §1

[7] = system: human red blood cells (hRBC); experiment: Hemolysis of human red blood cells; details: red cells of human, 1 h
How it was run: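 Percent lysis of washed human erythrocytes after 1 h at 37° C. with 100 μg/mL peptide, calculated from OD540 of 8-fold diluted supernatant as a fraction of the 2.5% Triton X-100 value.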

**Q.** How did the “Acinetobacter baumannii 872842 MIC” value [1] turn out when `CC(C)C[C@@H]1NC(=O)[C@H](CO)NC(=O)[C@H](Cc2ccc(O)cc2)NC(=O)[C@@H]2CCCN2C(=O)[C@H]2CCCN2C(=O)[C@H](Cc2c[nH]cn2)NC(=O)[C@H](C)NC(=O)[C@H](C(C)C)NC(=O)[C@@H](NC(=O)[C@@H](N)CC(C)C)CSSC[C@@H](C(=O)NCC(=O)N[C@@H](CCN)C(=O)N[C@H](C(=O)N[C@@H](CCN)C(=O)N[C@H]2CCNC(=O)[C@H]([C@@H](C)O)NC(=O)[C@H](CCN)NC(=O)[C@H](CCN)NC(=O)[C@H](CC(C)C)NC(=O)[C@@H](CC(C)C)NC(=O)[C@H](CCN)NC2=O)[C@@H](C)O)NC1=O` [Ex. 156] (H-LCVAH[dP]PYSLCG[Dab]T[Dab][Dab][Dab][dL]L[Dab][Dab]T; disulfide 2-11; lactam 16-C) was run?
**A.** 0.0625 µg/mL

**Q.** And the “Acinetobacter baumannii DSM 30008 MIC” value [2]?
**A.** 0.125 µg/mL

**Q.** What about the “Escherichia coli 926415 MIC” value (Escherichia coli 926415) of the same compound?
**A.** 1 µg/mL

**Q.** What about the “Escherichia coli ATCC 25922 MIC” value [3] of the same compound?
**A.** 0.125 µg/mL

**Q.** What about the “Klebsiella pneumoniae 968733 MIC” value [4] of the same compound?
**A.** 0.5 µg/mL

**Q.** And the “Klebsiella pneumoniae SSI #3010 MIC” value [5]?
**A.** 0.125 µg/mL

**Q.** And the “Pseudomonas aeruginosa ATCC 27853 MIC” value [6]?
**A.** 0.25 µg/mL

**Q.** What about the “Hemolysis at 100 μg/mL” value ([7]; 100 μg/mL) of the same compound?
**A.** <1%

**Q.** For `CC(=O)N[C@@H](Cc1c[nH]c2ccccc12)C(=O)N[C@@H](CCN)C(=O)N[C@H](C(=O)N[C@H]1CSSC[C@@H](C(=O)N[C@@H](Cc2ccc(O)cc2)C(=O)N[C@@H](CCN)C(=O)N[C@@H](CN)C(=O)N[C@@H](CCN)C(=O)N[C@@H](CCN)C(=O)N[C@@H](CCN)C(=O)N[C@H]2CCNC(=O)[C@H]([C@@H](C)O)NC(=O)[C@H](CCN)NC(=O)[C@H](CCN)NC(=O)[C@H](CC(C)C)NC(=O)[C@@H](Cc3ccccc3)NC(=O)[C@H](CCN)NC2=O)NC(=O)[C@H](C(C)C)NC(=O)[C@@H]2CCCN2C(=O)[C@@H](Cc2ccc(O)cc2)NC(=O)[C@H]([C@@H](C)O)NC1=O)C(C)(C)C` [Ex. 160] (Ac-W[Dab][Tle]CT[dY]PVCY[Dab][Dap][Dab][Dab][Dab][Dab][Dab][dF]L[Dab][Dab]T; disulfide 4-9; lactam 16-C), which “Acinetobacter baumannii 872842 MIC” value [1] is on record?
**A.** 1 µg/mL

**Q.** What about the “Acinetobacter baumannii DSM 30008 MIC” value [2] of the same compound?
**A.** 0.5 µg/mL

**Q.** And the “Escherichia coli 926415 MIC” value (Escherichia coli 926415)?
**A.** 2 µg/mL

**Q.** And the “Escherichia coli ATCC 25922 MIC” value [3]?
**A.** 0.5 µg/mL

**Q.** And the “Klebsiella pneumoniae 968733 MIC” value [4]?
**A.** 4 µg/mL

**Q.** What about the “Klebsiella pneumoniae SSI #3010 MIC” value [5] of the same compound?
**A.** 1 µg/mL

**Q.** And the “Pseudomonas aeruginosa ATCC 27853 MIC” value [6]?
**A.** 0.25 µg/mL

**Q.** What about the “Hemolysis at 100 μg/mL” value ([7]; 100 μg/mL) of the same compound?
**A.** <1%

**Q.** What does the source list for `CC(C)C[C@@H]1NC(=O)[C@@H](CC(C)C)NC(=O)[C@H](CCN)NC(=O)[C@@H](NC(=O)[C@H](CCN)NC(=O)[C@@H](NC(=O)[C@H](CCN)NC(=O)CC[C@@H]2NC(=O)[C@H](CCN)NC(=O)[C@H](Cc3ccc(O)cc3)NC(=O)[C@H]([C@@H](C)O)NC(=O)[C@H](C(C)C)NC(=O)[C@@H]3CCCN3C(=O)[C@@H](C)NC(=O)[C@H](CO)NC(=O)[C@H](C)NC(=O)[C@H](C(C)(C)C)NC(=O)[C@H](CCO)NC(=O)[C@H](Cc3c[nH]c4ccccc34)NC(=O)[C@H](CCO)NC(=O)[C@@H](CCN)NC2=O)[C@@H](C)O)CCNC(=O)[C@H]([C@@H](C)O)NC(=O)[C@H](CCN)NC(=O)[C@H](CCN)NC1=O` [Ex. 103] (I: cyclo([dDab][hSer]W[hSer][Tle]AS[dA]PVTY[Dab]E) / II: [Dab]T[Dab][Dab][Dab][dL]L[Dab][Dab]T; amide I:14-II:N; lactam II:4-II:C)?
**A.** Acinetobacter baumannii 872842 MIC [1]: 0.25 µg/mL; Acinetobacter baumannii DSM 30008 MIC [2]: 0.0625 µg/mL; Escherichia coli 926415 MIC (Escherichia coli 926415): 0.125 µg/mL; Escherichia coli ATCC 25922 MIC [3]: 0.625 µg/mL; Klebsiella pneumoniae 968733 MIC [4]: 0.0625 µg/mL; Klebsiella pneumoniae SSI #3010 MIC [5]: 0.0625 µg/mL; Pseudomonas aeruginosa ATCC 27853 MIC [6]: 0.125 µg/mL; Hemolysis at 100 μg/mL [7]; 100: 1%

**Q.** Which “Acinetobacter baumannii 872842 MIC” value [1] does the source give for `CC(C)C[C@@H]1NC(=O)[C@H](CO)NC(=O)[C@H](CC(C)C)NC(=O)[C@@H]2CCCN2C(=O)[C@H]2CCCN2C(=O)[C@H]([C@@H](C)O)NC(=O)[C@H](C)NC(=O)[C@H](C(C)C)NC(=O)[C@@H](NC(=O)[C@@H](N)CC(C)C)CSSC[C@@H](C(=O)NCC(=O)N[C@@H](CCN)C(=O)N[C@H](C(=O)N[C@@H](CCN)C(=O)N[C@H]2CCNC(=O)[C@H]([C@@H](C)O)NC(=O)[C@H](CCN)NC(=O)[C@H](CCN)NC(=O)[C@H](CC(C)C)NC(=O)[C@@H](CC(C)C)NC(=O)[C@H](CCN)NC2=O)[C@@H](C)O)NC1=O` [Ex. 154] (H-LCVAT[dP]PLSLCG[Dab]T[Dab][Dab][Dab][dL]L[Dab][Dab]T; disulfide 2-11; lactam 16-C) here?
**A.** 0.03125 µg/mL

**Q.** What about the “Acinetobacter baumannii DSM 30008 MIC” value [2] of the same compound?
**A.** 0.0625 µg/mL

**Q.** What about the “Escherichia coli 926415 MIC” value (Escherichia coli 926415) of the same compound?
**A.** 0.125 µg/mL

**Q.** And the “Escherichia coli ATCC 25922 MIC” value [3]?
**A.** 0.0625 µg/mL

**Q.** What about the “Klebsiella pneumoniae 968733 MIC” value [4] of the same compound?
**A.** 0.25 µg/mL

**Q.** And the “Klebsiella pneumoniae SSI #3010 MIC” value [5]?
**A.** 0.0625 µg/mL

**Q.** What about the “Pseudomonas aeruginosa ATCC 27853 MIC” value [6] of the same compound?
**A.** 1 µg/mL

**Q.** What about the “Hemolysis at 100 μg/mL” value ([7]; 100 μg/mL) of the same compound?
**A.** <1%

**Q.** How did the “Acinetobacter baumannii 872842 MIC” value [1] turn out when `CC(C)C[C@@H]1NC(=O)[C@@H](CC(C)C)NC(=O)[C@H](CCN)NC(=O)[C@@H](NC(=O)[C@H](CCN)NC(=O)[C@@H](NC(=O)[C@H](CCN)NC(=O)CN(C)C(=O)[C@H](CCN)NC(=O)[C@H](Cc2ccc(O)cc2)NC(=O)[C@@H]2CSSC[C@H](NC(=O)[C@@H](NC(=O)[C@H](CCN)NC(=O)[C@@H](N)Cc3c[nH]c4ccccc34)C(C)(C)C)C(=O)N[C@@H](CO)C(=O)N3CCC[C@@H]3C(=O)N3CCC[C@H]3C(=O)N[C@@H](CC(C)C)C(=O)N2)[C@@H](C)O)CCNC(=O)[C@H]([C@@H](C)O)NC(=O)[C@H](CCN)NC(=O)[C@H](CCN)NC1=O` [Ex. 161] (H-W[Dab][Tle]CS[dP]PLCY[Dab][Sar][Dab]T[Dab][Dab][Dab][dL]L[Dab][Dab]T; disulfide 4-9; lactam 16-C) was run?
**A.** 0.5 µg/mL

**Q.** And the “Acinetobacter baumannii DSM 30008 MIC” value [2]?
**A.** 0.25 µg/mL

**Q.** And the “Escherichia coli 926415 MIC” value (Escherichia coli 926415)?
**A.** 0.25 µg/mL

**Q.** What about the “Escherichia coli ATCC 25922 MIC” value [3] of the same compound?
**A.** 0.0625 µg/mL

**Q.** What about the “Klebsiella pneumoniae 968733 MIC” value [4] of the same compound?
**A.** 2 µg/mL

**Q.** And the “Klebsiella pneumoniae SSI #3010 MIC” value [5]?
**A.** 0.125 µg/mL

**Q.** What about the “Pseudomonas aeruginosa ATCC 27853 MIC” value [6] of the same compound?
**A.** 0.5 µg/mL

**Q.** What about the “Hemolysis at 100 μg/mL” value ([7]; 100 μg/mL) of the same compound?
**A.** <1%

**Q.** `CCCC[C@@H]1NC(=O)[C@@H]2CCCN2C(=O)[C@@H](CCN)NC(=O)[C@H](CO)NC(=O)[C@H](C)NC(=O)[C@H](C(C)(C)C)NC(=O)[C@@H](NC(=O)[C@H](Cc2c[nH]c3ccccc23)NC(C)=O)CSSC[C@@H](C(=O)N[C@@H](CCCN)C(=O)N[C@@H](CCN)C(=O)N[C@H]2CCNC(=O)[C@H]([C@@H](C)O)NC(=O)[C@H](CCN)NC(=O)[C@H](CCN)NC(=O)[C@H](CC(C)C)NC(=O)[C@@H](Cc3ccccc3)NC(=O)[C@H](CCN)NC2=O)NC(=O)[C@H](Cc2ccc(O)cc2)NC(=O)[C@H](CO)NC1=O` [Ex. 53] (Ac-WC[Tle]AS[dDab]P[Nle]SYC[Orn][Dab][Dab][Dab][dF]L[Dab][Dab]T; disulfide 2-11; lactam 14-C) was tested. Which “Acinetobacter baumannii 872842 MIC” value [1] did it give?
**A.** 2 µg/mL

**Q.** What about the “Acinetobacter baumannii DSM 30008 MIC” value [2] of the same compound?
**A.** 0.25 µg/mL

**Q.** And the “Escherichia coli 926415 MIC” value (Escherichia coli 926415)?
**A.** 1 µg/mL

**Q.** What about the “Escherichia coli ATCC 25922 MIC” value [3] of the same compound?
**A.** 0.25 µg/mL

**Q.** What about the “Klebsiella pneumoniae 968733 MIC” value [4] of the same compound?
**A.** 8 µg/mL

**Q.** And the “Klebsiella pneumoniae SSI #3010 MIC” value [5]?
**A.** 0.5 µg/mL

**Q.** What about the “Pseudomonas aeruginosa ATCC 27853 MIC” value [6] of the same compound?
**A.** 2 µg/mL

**Q.** And the “Hemolysis at 100 μg/mL” value ([7]; 100 μg/mL)?
**A.** 1%
